The values below come from publication PMC9182141, “Assay Development and Identification of the First Plasmodium falciparum 7,8-dihydro-6-hydroxymethylpterin-pyrophosphokinase Inhibitors” (Molecules, 2022).

Structures can show the parent of a compound that is named as a salt. Some results are limits rather than exact numbers.

For orientation: ΔTm means the shift of the melting midpoint relative to a reference. One may read the microsomal CLint as a measure of how fast metabolising enzymes remove a compound, apart from limits set by blood flow. The term IC50 denotes the midpoint of a concentration-inhibition curve. Usually Km stands for the concentration of substrate that gives half-maximal velocity. A word on the Tm: it is the temperature at which the thermal transition is half complete.

Data set [1] concerns the target T1, PfHPPK-GFP (Plasmodium falciparum, UniProt Q25704). Briefly: DSF-GTP (GFP-tagged protein differential scanning fluorimetry) thermal shift. As to conditions: for ΔTm at 1000 µM: read-out: ΔTm (°C). Format: binding. How it is done: In a preliminary screening experiment, buffer conditions were investigated, searching for conditions that provide the largest thermal shift in the presence of 1 mM ATP. DSF curves were recorded under a total of 17 different conditions, with variations in buffer nature and pH, salts nature and concentration, effect of reducing agent, MgSO4 and glycerol.
From there, protein binding properties of the hit compounds were assessed experimentally using the developed DSF-GTP assay. A total of 54 compounds were tested, including virtual screening hits and closely related structures. According to our protocol, each compound was mixed with PfHPPK-GFP and submitted to a temperature gradient from 30 °C to 90 °C at 1 °C/min while GFP fluorescence was recorded. The first derivative of the resulting curve was used to determine the melting temperature (Tm). For each set of experiments, a negative control containing DMSO was added, and ΔTm values were calculated for each compound vs. the DMSO control. […] Two compound families were identified as the most promising by our DSF-GTP assay: 5-phenylazo-2,4-diaminopyrimidines (series 1) and phenyltriazolyl-2-amino-4-pyrimidinone (series 2). In series 2, linkers of different lengths that separate the phenyl triazolyl and the pyrimidine moieties were included.
In a typical DSF-GTP experiment, a master mix containing buffer and PfHPPK-GFP was prepared in a microcentrifuge tube, corresponding to a final protein concentration of 20 μg/mL. Ligands of interest were dispensed in low-profile 96-well plates (Bio-Rad) to 1 mM final concentration, and the master mix was dispensed to a final volume of 50 μL per well. In these conditions, DMSO content was maintained constant at 2%. The microplate was sealed with adhesive film and mixed by shaking for 2 min at 800 rpm at RT. The microplate was then submitted to a DSF run on a CFX96 RT-PCR (Bio-Rad, Hercules, CA, USA). DSF program was designed by starting with a 3 min equilibration phase at 30 °C, followed by a temperature gradient of 1 °C/min until 90 °C, recording fluorescence every 0.5 °C. Fluorescence was recorded using the FAM channel (λex = 450–490 nm, λem = 510–530 nm). Curves were fitted using the Precision Melt Analysis software (Bio-Rad).
(Differential scanning fluorimetry follows unfolding on heating by fluorescence.)

In data set [2] the target is T1, PfHPPK-GFP. The data set can be described thus: KinaseGlo enzyme inhibition assay. To be noted: 1 mM compound, 10 μM HMDP and 10 μM ATP, 20 min at RT; read-out: Inhib. at 1 mM (%). The class given is biochemical. The method, then: For all the compounds displaying a measurable change of Tm, PfHPPK inhibition was recorded at 10 μM HMDP and ATP and 1 mM compound using the KinaseGlo assay. These conditions were chosen to be in the reported Km range for both HMDP and ATP substrates, enabling detection of both competitive and uncompetitive inhibitors. Compounds were incubated with HMDP, ATP and HPPK-GFP for 20 min at RT, followed by addition of the KinaseGlo reagent. After 10 min equilibration, luminescence was recorded, which directly reflects the quantity of ATP left in solution at the end of the reaction. Percentages of inhibition were calculated based on a DMSO positive control and a negative control lacking HPPK-GFP. Compounds structures, ΔTm and levels of inhibition appear in Table 1 and Table 2.
PfHPPK-GFP inhibition assay was carried using the KinaseGlo Plus kit (Promega, Madison, WI, USA). In a black 96-well plate were dispensed test compounds (1 μL of 50 mM DMSO stock), master mix (100 mM Tris pH 9, 10 mM β-mercapto ethanol, 10 mM MgSO4, 0.01% w/v BSA, 10 μM HMDP and 10 μM ATP). Reaction was initiated by addition of 2 μg of enzyme, reaching a total reaction volume of 50 μL, and reaction was allowed to proceed for 20 min at RT shaking at 300 rpm. Reaction was then quenched by addition of 50 μL KinaseGlo reagent and allowed to equilibrate for 10 min at RT shaking at 300 rpm. Luminescence was recorded on a Biotek Synergy H1 plate reader (Agilent, Santa Clara, CA, USA) using an integration time of 1 s per well. Percentage of inhibition was calculated related to a positive control experiment (no enzyme added) and a negative control experiment (no inhibitor added).
For orientation: Kinase-Glo reads ATP consumption through a luciferase reaction.

Data set [3] can be described thus: Metabolic stability in human liver microsomes. To be noted: for microsomal CLint: human, liver microsomes. The method, then: (§1) Intrinsic clearance was also measured in both human and rat liver microsomes in order to assess sensitivity to metabolic degradation.
(§2) Metabolic stability of test compounds was determined in human and rat liver microsomes. The assay was adapted from a previously published method. Briefly, the test compounds were mixed with liver microsomes, and the metabolic reactions were initiated by the addition of NADPH. Acetonitrile containing an internal standard (labetalol) was added at 0, 5, 10, 30, and 60 min to stop the reactions. Samples were processed, and the remaining compounds in the reactions were detected using a LC-MS/MS. Distribution coefficient, solubility and polar surface area were predicted using Marvin software. Partition coefficient was predicted using ACD/Labs software.

Data set [4] in a line: Metabolic stability in rat liver microsomes. As to conditions: for microsomal CLint: rat, liver microsomes. The method, then: as §1, §2
Background: Liver microsomes are vesicles of endoplasmic reticulum, rich in cytochrome P450 enzymes.

For data set [5], the system named is Plasmodium falciparum TM4/8.2 (drug sensitive). Briefly: Antimalarial activity, [3H]-hypoxanthine incorporation assay, TM4/8.2. Format: cell-based. As to conditions: P. falciparum TM4/8.2 (drug sensitive), when no IC50 could be determined, highest tested concentration noted. How it is done: (§3) Finally, the various hit compounds were tested for their antimalarial activity against P. falciparum TM4/8.2 [26] and V1/S [27] strains. Parasite cultures were treated with test compounds at different concentrations, and antimalarial activity was measured using [3H]-hypoxanthine incorporation assay, according to our previously reported protocol. […] IC50 values could not be measured for other compounds. At this stage, there is no explanation for the difference in antiparasitic activity observed between TM4/8.2 and V1/S strains, and more investigations would be needed to conclude on this effect.
(§4) Compounds were tested for their antimalarial activity against P. falciparum TM4/8.2 [26] and V1/S [27] strains according to our previously reported protocol. In brief, parasite strains were maintained continuously in human erythrocytes in RPMI1640 supplemented with 25 mM HEPES pH 7.4, 0.2% NaHCO3, 40 µg/mL gentamicin and 8% human serum at 37 °C under 3% CO2. For in vitro antimalarial assay, parasite was treated with serial dilutions of the inhibitors, and parasite survival was determined using a modified microdilution radioisotope technique.

Data set [6] relates to Plasmodium falciparum V1/S (drug resistant). The data set can be described thus: Antimalarial activity, [3H]-hypoxanthine incorporation assay, V1/S. The class given is cell-based. To be noted: Plasmodium falciparum, P. falciparum V1/S (drug resistant); when no IC50 could be determined, highest tested concentration noted. How it is done:
as §3, §4

Data set [7] deals with Vero cell line (African green monkey kidney cells). Briefly: Cytotoxicity, sulforhodamine B assay, Vero cells. To be noted: Chlorocebus sabaeus, 72 h, when no IC50 could be determined, highest tested concentration noted. The class given is cell-based.
Data set [8] deals with KB cell line (human epithelial carcinoma cells). The data set can be described thus: Cytotoxicity, sulforhodamine B assay, KB cells. Format: cell-based. To be noted: 72 h, when no IC50 could be determined, highest tested concentration noted.
Data set [9] addresses T1, PfHPPK-GFP. Briefly: KinaseGlo enzyme inhibition assay. Format: biochemical. To be noted: dose-response inhibition, read-out: IC50 against the enzyme.
Another data set has as its system PfHPPK. Also on record: method as in PMID 19631695. As to conditions: substrate of monofunctional PfHPPK; cited from earlier work.

T1 sequence (Q25704 entry or part of it): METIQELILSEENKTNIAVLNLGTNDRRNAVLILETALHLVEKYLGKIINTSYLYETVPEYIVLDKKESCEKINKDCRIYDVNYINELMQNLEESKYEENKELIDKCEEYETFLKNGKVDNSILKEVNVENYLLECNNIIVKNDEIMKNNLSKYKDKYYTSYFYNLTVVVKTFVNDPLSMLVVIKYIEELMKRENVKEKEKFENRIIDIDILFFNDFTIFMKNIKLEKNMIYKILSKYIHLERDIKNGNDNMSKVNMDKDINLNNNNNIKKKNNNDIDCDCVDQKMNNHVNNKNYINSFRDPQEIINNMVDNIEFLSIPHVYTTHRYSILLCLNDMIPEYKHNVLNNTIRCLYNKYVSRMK

Consider `CCc1nc(N)[nH]c(=O)c1CCc1cn(-c2ccc(C(=O)O)cc2)nn1` [Compound 11, 2-Amino-6-ethyl-5-(2-(1-(4-(carboxy)phenyl)-1H-1,2,3-triazol-4-yl)ethyl)pyrimidin-4(3H)-one hydrochloride], for which the ΔTm at 1000 µM on PfHPPK-GFP [1] is -1.3 ± 0.3 °C. The inhibition at 1000 µM at PfHPPK-GFP [2] came to 34.9 ± 5.5%. Besides, the microsomal CLint in data set [3] was under 3 µL/min/mg; in [4], 6.91 µL/min/mg. For the same compound, the IC50 in [5], in [6], in data set [7] and in data set [8] was over 50 µM in each case.

`CCc1nc(N)[nH]c(=O)c1CCCc1cn(-c2cccc(C(=O)O)c2)nn1` [Compound 14, 2-Amino-6-ethyl-5-(3-(1-(3-(carboxy)phenyl)-1H-1,2,3-triazol-4-yl)propyl)pyrimidin-4(3H)-one]: on PfHPPK-GFP [1], the ΔTm at 1000 µM is -1.2 ± 0.3 °C. At PfHPPK-GFP [2], the inhibition at 1000 µM was 42.8 ± 5.5%. Moreover, the microsomal CLint in [3] stood at 4.88 µL/min/mg; in data set [4], 7.05 µL/min/mg. For the same compound, the IC50 in [5] is over 50 µM; in [6], over 50 µM; in [7], over 50 µM; in [8], over 50 µM; on PfHPPK-GFP [9], 814 ± 47 µM.

For `Nc1nc(N)c(/N=N/c2ccccc2)c(N)n1` [Compound 4, (E)-5-(Phenyldiazenyl)pyrimidine-2,4,6-triamine], the shift in melting temperature (ΔTm) at 1000 µM on PfHPPK-GFP [1] was -1 °C. The inhibition at 1000 µM at PfHPPK-GFP [2] is 46 ± 7.5%. Also, the microsomal CLint worked out at 363 µL/min/mg in data set [3] and 82.4 µL/min/mg in data set [4]. Moreover, the IC50 was 75.4 µM in data set [5], over 50 µM in data set [6], 29.6 µM in data set [7] and 62.4 µM in data set [8].

Consider `Nc1nc(O)c2c(n1)NCC(CO)=N2` [HMDP, 2-amino-4-hydroxy-6-hydroxymethyl-7,8-dihydropteridine], for which the Km with PfHPPK was 2.1 µM.

`CCc1nc(N)nc(N)c1OCCCOc1ccccc1CCC(=O)O` [Compound P218, reference compound]: the “CLint (HLM)” value in [3] (human liver microsomes, NADPH) is listed as under 3 µL/min/mg. In data set [4] (rat liver microsomes, NADPH), the “CLint (RLM)” value was under 3 µL/min/mg.

In the case of `COc1nc(N)nc(N)c1/N=N/c1cccc(C(=O)O)c1` [Compound 3, (E)-3-((2,4-Diamino-6-methoxypyrimidin-5-yl)diazenyl) benzoic acid], the ΔTm at 1000 µM on PfHPPK-GFP [1] is -1 °C. The inhibition at 1000 µM on PfHPPK-GFP [2] is 23.3 ± 4.8%. Besides, the microsomal CLint in data set [3] and in [4] was under 3 µL/min/mg each time. Moreover, the IC50 in [5] is over 50 µM; in data set [6], over 50 µM; in data set [7] it was over 100 µM; in data set [8] it was over 100 µM.

As to `CCc1nc(N)[nH]c(=O)c1CCCc1cn(-c2ccc(C(=O)O)cc2)nn1` [Compound 13, 2-Amino-6-ethyl-5-(3-(1-(4-(carboxy)phenyl)-1H-1,2,3-triazol-4-yl)propyl)pyrimidin-4(3H)-one hydrochloride], at PfHPPK-GFP [1], the ΔTm at 1000 µM was -1.5 °C. Further, the inhibition at 1000 µM at PfHPPK-GFP [2] came to 24.9 ± 3.1%. The intrinsic metabolic clearance (microsomal CLint) in data set [3] was under 3 µL/min/mg; in [4], 7.38 µL/min/mg. Besides, the IC50 in data set [5], in [6], in data set [7] and in data set [8] was over 50 µM in each case.

On to `Nc1ncnc2c1ncn2[C@@H]1O[C@H](COP(=O)(O)OP(=O)(O)OP(=O)(O)O)[C@@H](O)[C@H]1O` [ATP], for which, on PfHPPK-GFP [1] (PfHPPK-GFP in optimal buffer in the presence of 1 mM ATP (apo form 81 °C)), the Tm was 80 °C. In addition, in the data set with PfHPPK, the Km was 13.2 µM.
